Results as given in ChEMBL document CHEMBL5726429, “Inhibitors of lysine specific demethylase-1” (2017).

Target: Lysine-specific histone demethylase 1A (Homo sapiens, UniProt O60341)
Assay: In Vitro Enzyme Inhibition Assay: The enzymatic assay of LSD1 activity is based on Time Resolved-Fluorescence Resonance Energy Transfer (TR-FRET) detection. The inhibitory properties of compounds to LSD1 were determined in 384-well plate format under the following reaction conditions: 0.1-0.5 nM LSD1, 50 nM H3K4mel-biotin labeled peptide (Anaspec cat # 64355), 2 μM FAD in assay buffer of 50 mM …

- IC50: < 0.1 µM
Structure (SMILES): Cn1c(N2CCC(N)CC2)nc(-c2ccc(C#N)c(F)c2)c(Cl)c1=O
